Measured values as given in article PMC3174061 (Journal of the American Chemical Society, 2011).

Tests used:
LipO = LipO (Streptomyces sp. SANK 60405, UniProt D4QF28); experiment: UV/Vis spectroscopy, co-purification; format: binding; settings: co-purified cofactor, Lys282 internal aldimine expected
LipN = LipN (Streptomyces sp. SANK 60405, UniProt D4QF27); experiment: HPLC, MS and NMR of product; format: biochemical; settings: sugar donor, uridine as surrogate acceptor, 5 mM MgCl2, 30 °C
purified protein = substrate: NC[C@H]1O[C@@H](n2ccc(=O)[nH]c2=O)[C@H](O)[C@@H]1O; experiment: purified protein; format: biochemical, Escherichia coli; settings: pH 7.5, […] phosphate, 30 °C

In the case of `Cc1ncc(COP(=O)(O)O)c(C=O)c1O` [PLP], the “UV/Vis spectroscopy, co-purification” value (LipO) is reported as “shown by UV/Vis spectroscopy to co-purify with the cofactor PLP”.

In the case of `NC[C@H]1O[C@H](OP(=O)(O)OP(=O)(O)OC[C@H]2O[C@@H](n3ccc(=O)[nH]c3=O)[C@H](O)[C@@H]2O)[C@H](O)[C@@H]1O` [UDP-5-amino-5-deoxy-α-D-ribose], the “HPLC, MS and NMR of product; donor generated in situ by LipP and LipM” value (LipN) is reported as “higher yields were obtained with the genuine sugar donor UDP-5-amino-5-deoxy-α-D-ribose”.

B1: EcUdp (Escherichia coli K-12) (protein)
chain: SKSDVFHLGLTKNDLQGATLAIVPGDPDRVEKIAALMDKPVKLASHREFTTWRAELDGKPVIVCSTGIGGPSTSIAVEELAQLGIRTFLRIGTTGAIQPHINVGDVLVTTASVRLDGASLHFAPLEFPAVADFECTTALVEAAKSIGATTHVGVTASSDTFYPGQERYDTYSGRVVRHFKGSMEEWQAMGVMNYEMESATLLTMCASQGLRAGMVAGVIVNRTQQEIPNAETMKQTESHAVKIVVEAARRLL
In the case of B1, the Km (purified protein) is reported as “(2.0 ± 0.5) × 10^3 µM” and the kcat (purified protein) is reported as 5.33 ± 0.667 s⁻¹.
